From patent US7459581B2, “Anti-bacterial compounds” (Givaudan S.A., priority 2004, dated 2008)
Values after ≈ are worked out from the molar mass of the structure shown. Read-outs that look alike come from different tables or passages of the source.

What was measured:
S. epidermidis Ax 25 [1] = experiment: Bactericidal activity (MBC), 60 min contact; assay type: cell-based, Staphylococcus epidermidis; conditions: complete kill of inoculum after 60 min incubation; regrowth read after 24 h at 36° C.
From the text: (§1) The different axilla bacteria are isolated from the human axilla according to techniques known in the art, in particular according to standard microbiological practice. They are taxonomically identified by cell morphology, gram-reaction and biochemical tests included in the Api coryne test kit (BioMerieux, France). Strain Staphylococcus epidermidis Ax25 is identified by fatty acid methyl ester analysis (FAME; German type strain collection DSMZ, Germany). Escherichia coli DSM 682, Staphylococcus aureus DSM 799, and Corynebacterium xerosis DSM 20170 are obtained from the German-type strain collection.
(§2) The strains are maintained on Tryptic soy broth plates, this standard medium being supplemented with 5 g per litre of Polyoxyethylene Sorbitan Monooleate (Tween™ 80). Plates are incubated at 36° C. for a period 48 hours. The bacteria are then swabbed from the plates and suspended in 4 ml of Müller-Hinton broth supplemented with 100 mg of Tween™ 80 per litre (MH-Tween™) and incubated again at 36° C. for 16 hours. Following incubation, the bacterial suspensions are diluted in MH-Tween™ to obtain a final cell density of 10^7 colony forming units per ml. These diluted suspensions of the different test organisms are distributed to different columns of a microtiter plate, 100 μl per well. The test compounds are dissolved in dimethylsulfoxide (DMSO) at various test concentrations and 2.5 μl of these different DMSO solutions are added to the different wells of the test plates. The plates are covered with plastic films and incubated for 24 h at 36° C. with shaking at 250 rpm. The turbidity developing in the microtiter plates is then examined after 24 h to determine microbial growth. The minimal concentration of test compounds inhibiting the growth of an organism by at least 80% is determined as the minimal inhibitory concentration (MIC).
(§3) The bactericidal effects of the compounds of the present invention are further tested. The bacteria are grown, harvested and diluted under the same conditions as described in example 10 above and added to microtiter plates (100 μl per well), each well containing 2.5 μl of the different DMSO solutions as described above. After 60 min incubation, 0.5 μl of the bacterial culture from each well (corresponding to 5×10^3 cfu in the control treatment) is transferred to a fresh microtiter plate which contained 100 μl per well of fresh medium. The plates are covered with plastic films and incubated for 24 h at 36° C. with shaking at 250 rpm. The turbidity developing in the microtiter plates is then examined after 24 h to determine microbial growth. The minimal concentration of test compounds which completely killed the bacterial inoculum is determined as the minimal bactericidal concentration (MBC).

Corynebacterium Ax 15 [2] = experiment: Bacteriostatic activity (MIC), microtiter turbidity; assay type: cell-based, Corynebacterium jeikeium; conditions: read-out: MIC Corynebacterium Ax 15
From the text: as §1, with “Germany).” for “Germany). Escherichia coli DSM 682, Staphylococcus aureus DSM 799, and Corynebacterium xerosis DSM 20170 are obtained from the German-type strain collection.”
as §2, with “growth.” for “growth. The minimal concentration of test compounds inhibiting the growth of an organism by at least 80% is determined as the minimal inhibitory concentration (MIC).”

Corynebacterium Ax 15 [3] = experiment: Bactericidal activity (MBC), 60 min contact; assay type: cell-based, Corynebacterium jeikeium; conditions: complete kill of inoculum after 60 min incubation; regrowth read after 24 h at 36° C.
From the text: as §1, §2, §3

C. xerosis DSM 20170 [4] = experiment: Bacteriostatic activity (MIC), microtiter turbidity; assay type: cell-based; conditions: Corynebacterium xerosis, read-out: MIC C. xerosis DSM 20170
From the text: as §1, with “Germany).” for “Germany). Escherichia coli DSM 682, Staphylococcus aureus DSM 799, and Corynebacterium xerosis DSM 20170 are obtained from the German-type strain collection.”
as §2, with “growth.” for “growth. The minimal concentration of test compounds inhibiting the growth of an organism by at least 80% is determined as the minimal inhibitory concentration (MIC).”

Escherichia coli DSM 682 [5] = experiment: as above; assay type: cell-based; conditions: read-out: MIC Escherichia coli DSM 682
From the text: as §1, with “Germany).” for “Germany). Escherichia coli DSM 682, Staphylococcus aureus DSM 799, and Corynebacterium xerosis DSM 20170 are obtained from the German-type strain collection.”
as §2, with “growth.” for “growth. The minimal concentration of test compounds inhibiting the growth of an organism by at least 80% is determined as the minimal inhibitory concentration (MIC).”

S. epidermidis Ax 25 [6] = experiment: as above; assay type: cell-based; conditions: Staphylococcus epidermidis, read-out: MIC S. epidermidis Ax 25
From the text: as §1, with “Germany).” for “Germany). Escherichia coli DSM 682, Staphylococcus aureus DSM 799, and Corynebacterium xerosis DSM 20170 are obtained from the German-type strain collection.”
as §2, with “growth.” for “growth. The minimal concentration of test compounds inhibiting the growth of an organism by at least 80% is determined as the minimal inhibitory concentration (MIC).”

[7] = test system: Staphylococcus aureus DSM 799; experiment: as above; assay type: cell-based; conditions: read-out: MIC Staphylococcus aureus DSM 799
From the text: as §1, with “Germany).” for “Germany). Escherichia coli DSM 682, Staphylococcus aureus DSM 799, and Corynebacterium xerosis DSM 20170 are obtained from the German-type strain collection.”
as §2, with “growth.” for “growth. The minimal concentration of test compounds inhibiting the growth of an organism by at least 80% is determined as the minimal inhibitory concentration (MIC).”

Corynebacterium Ax 7 [8] = experiment: as above; assay type: cell-based, Corynebacterium group G; conditions: read-out: MIC Corynebacterium Ax 7
From the text: as §1, with “Germany).” for “Germany). Escherichia coli DSM 682, Staphylococcus aureus DSM 799, and Corynebacterium xerosis DSM 20170 are obtained from the German-type strain collection.”
as §2, with “growth.” for “growth. The minimal concentration of test compounds inhibiting the growth of an organism by at least 80% is determined as the minimal inhibitory concentration (MIC).”

C. xerosis DSM 20170 [9] = experiment: Bactericidal activity (MBC), 60 min contact; assay type: cell-based, Corynebacterium xerosis; conditions: complete kill of inoculum after 60 min incubation; regrowth read after 24 h at 36° C.
From the text: as §1, §2, §3

Corynebacterium Ax 7 [10] = experiment: Bactericidal activity (MBC), 60 min contact; assay type: cell-based, Corynebacterium group G; conditions: complete kill of inoculum after 60 min incubation; regrowth read after 24 h at 36° C.
From the text: as §1, §2, §3

Candida albicans = experiment: Antifungal (fungistatic) activity, MIC; assay type: cell-based; conditions: growth inhibition by at least 80%, 48 h, Saboureaud liquid medium, 10^5 cfu per ml
Experimental: as §2
(§4) The fungistatic effects of the compounds of the present invention are tested against the standard strains Candida albicans and Aspergillus niger. The strains are maintained on Potato dextrose agar plates. Plates are incubated at 30° C. for a period of 72 hours. The fungal inoculum is then swabbed from the plates and suspended in Saboureaud liquid medium and incubated again at 30° C. for 24 hours in the case of C. albicans. For A. niger the inoculum containing the fungal spores is directly harvested from the agar plates and suspended in distilled water. The inoculum is then diluted in Saboureaud liquid medium to obtain a final cell density of 10^5 colony forming units per ml. The test for fungistatic activity using differently concentrated DMSO stock solutions in microtiter plates is then conducted as described in example 10 for the bacteriostatic activity. The turbidity developing in the microtiter plates is then examined after 48 h to determine fungal growth. The minimal concentration of test compounds inhibiting the growth of an organism by at least 80% is determined as the minimal inhibitory concentration (MIC).

Aspergillus niger = experiment: Antifungal (fungistatic) activity, MIC; assay type: cell-based; conditions: growth inhibition by at least 80%, 48 h, Saboureaud liquid medium, 10^5 cfu per ml
Experimental: as §2, §4

Escherichia coli DSM 682 [11] = experiment: Bactericidal activity (MBC), 60 min contact; assay type: cell-based; conditions: complete kill of inoculum after 60 min incubation; regrowth read after 24 h at 36° C.
From the text: as §1, §2, §3

[12] = test system: Staphylococcus aureus DSM 799; experiment: Bactericidal activity (MBC), 60 min contact; assay type: cell-based; conditions: complete kill of inoculum after 60 min incubation; regrowth read after 24 h at 36° C.
From the text: as §1, §2, §3

[13] = AX15, growth inhibition by at least 80%, 24 h at 36° C., MH-Tween, 10^7 cfu per ml
[14] = DSM20170, growth inhibition by at least 80%, 24 h at 36° C., MH-Tween, 10^7 cfu per ml
[15] = DSM682, growth inhibition by at least 80%, 24 h at 36° C., MH-Tween, 10^7 cfu per ml
[16] = AX25, growth inhibition by at least 80%, 24 h at 36° C., MH-Tween, 10^7 cfu per ml
[17] = DSM799, growth inhibition by at least 80%, 24 h at 36° C., MH-Tween, 10^7 cfu per ml
[18] = AX7, growth inhibition by at least 80%, 24 h at 36° C., MH-Tween, 10^7 cfu per ml

| SMILES | MBC S. epidermidis Ax 25 (S. epidermidis Ax 25 [1]) | MIC (Corynebacterium Ax 15 [2]; [13]) | MBC Corynebacterium Ax 15 (Corynebacterium Ax 15 [3]) | MIC (C. xerosis DSM 20170 [4]; [14]) | MIC (Escherichia coli DSM 682 [5]; [15]) | MIC (S. epidermidis Ax 25 [6]; [16]) | MIC [7, 17] | MIC (Corynebacterium Ax 7 [8]; [18]) | MBC C. xerosis DSM 20170 (C. xerosis DSM 20170 [9]) | MBC Corynebacterium Ax 7 (Corynebacterium Ax 7 [10]) | MIC C. albicans (Candida albicans) | MIC A. niger (Aspergillus niger) | MBC Escherichia coli DSM 682 (Escherichia coli DSM 682 [11]) | MBC Staphylococcus aureus DSM 799 [12] | MIC (Corynebacterium Ax 15 [2]; AX15, 24 h) | MIC (C. xerosis DSM 20170 [4]; DSM20170, 24 h) | MIC (Escherichia coli DSM 682 [5]; DSM682, 24 h) | MIC (S. epidermidis Ax 25 [6]; AX25, 24 h) | MIC ([7]; DSM799, 24 h) | MIC (Corynebacterium Ax 7 [8]; AX7, 24 h) |
| --- | --- | --- | --- | --- | --- | --- | --- | --- | --- | --- | --- | --- | --- | --- | --- | --- | --- | --- | --- | --- |
| CCCCC(CC)COC(=O)CO (centres unmarked) [Compound 1., Hydroxy-acetic acid 2-ethyl-hexyl ester] | 0.25 % (weight/volume) | 1250 µg/mL (≈ 6640 µM) | 0.125 % (weight/volume) | 1250 µg/mL (≈ 6640 µM) | 1250 µg/mL (≈ 6640 µM) | 1250 µg/mL (≈ 6640 µM) | 2500 µg/mL (≈ 13300 µM) | 1250 µg/mL (≈ 6640 µM) | 0.125 % (weight/volume) | 0.125 % (weight/volume) | 0.0625 % (weight/volume) | 0.125 % (weight/volume) | – | – | – | – | – | – | – | – |
| CCCCCCC(CCCC)COC(=O)CO (centres unmarked) [Compound 2., Hydroxy-acetic acid 2-butyl-octyl ester] | >0.25 % (weight/volume) | 40 µg/mL (≈ 164 µM) | >0.25 % (weight/volume) | 80 µg/mL (≈ 327 µM) | > 2500 µg/mL | 80 µg/mL (≈ 327 µM) | 310 µg/mL (≈ 1270 µM) | 80 µg/mL (≈ 327 µM) | >0.25 % (weight/volume) | >0.25 % (weight/volume) | – | – | – | – | – | – | – | – | – | – |
| CCCCCCCCC(CCCCCC)COC(=O)CO (centres unmarked) [Compound 3., Hydroxy-acetic 2-hexyl-decyl ester] | >0.25 % (weight/volume) | 39 µg/mL (≈ 130 µM) | >0.25 % (weight/volume) | > 2500 µg/mL | > 2500 µg/mL | ≤ 19 µg/mL | > 2500 µg/mL | 2500 µg/mL (≈ 8320 µM) | >0.25 % (weight/volume) | >0.25 % (weight/volume) | – | – | >0.25 % (weight/volume) | >0.25 % (weight/volume) | – | – | – | – | – | – |
| CCCCC(CC)COC(=O)CN (centres unmarked) [Compound 4., 2-Ethyl-hexyloxycarbonylmethyl-ammonium chloride] | 0.25 % (weight/volume) | – | 0.25 % (weight/volume) | – | – | – | – | – | >0.25 % (weight/volume) | 0.25 % (weight/volume) | – | – | 0.125 % (weight/volume) | 0.25 % (weight/volume) | 310 µg/mL | 310 µg/mL | 630 µg/mL | 630 µg/mL | 630 µg/mL | 310 µg/mL |
| CCCCCCC(CCCC)COC(=O)CN (centres unmarked) [Compound 5., 2-Butyl-octyloxycarbonylmethyl-ammonium chloride] | 0.004 % (weight/volume) | – | 0.002 % (weight/volume) | – | – | – | – | – | 0.004 % (weight/volume) | 0.002 % (weight/volume) | 0.0078 % (weight/volume) | 0.0039 % (weight/volume) | 0.004 % (weight/volume) | 0.004 % (weight/volume) | 10 µg/mL | 20 µg/mL | 20 µg/mL | 20 µg/mL | 80 µg/mL | 10 µg/mL |
| CCCCCCCCC(CCCCCC)COC(=O)CN (centres unmarked) [Compound 6., 2-Hexyl-decyloxycarbonylmethyl-ammonium chloride] | 0.002 % (weight/volume) | – | 0.0005 % (weight/volume) | – | – | – | – | – | 0.002 % (weight/volume) | 0.0005 % (weight/volume) | 0.0156 % (weight/volume) | 0.002 % (weight/volume) | 0.016 % (weight/volume) | 0.004 % (weight/volume) | 5 µg/mL | 10 µg/mL | 20 µg/mL | 5 µg/mL | 20 µg/mL | 5 µg/mL |
| CCCCCCCCCCCC(=O)OCC(O)CO (centres unmarked) [Compound C1, Dodecanoic acid 2,3-dihydroxy-propyl ester, reference compound] | – | – | – | – | – | – | – | – | – | – | – | – | – | – | 1250 µg/mL (≈ 4560 µM) | 320 µg/mL (≈ 1170 µM) | > 5000 µg/mL | < 80 µg/mL | 80 µg/mL (≈ 292 µM) | 160 µg/mL (≈ 583 µM) |
| Oc1cc(Cl)ccc1Oc1ccc(Cl)cc1Cl [Compound C4, Triclosan, reference compound] | – | – | – | – | – | – | – | – | – | – | – | – | – | – | 30 µg/mL (≈ 104 µM) | 15 µg/mL (≈ 51.8 µM) | 5 µg/mL (≈ 17.3 µM) | 0.15 µg/mL (≈ 0.518 µM) | 5 µg/mL (≈ 17.3 µM) | 30 µg/mL (≈ 104 µM) |
